Assay results as given in patent publication US20240327415A1, “Multicomponent Complexes, Including Salts, Crystalline Forms, and Hydrates and Solvates of ENT1 Inhibitors” (iTeos Belgium SA, priority 2023, published 2024).
Values belong to the compound of their own block, whether it stands above or below them.

Columns and labels:
Assay type in all cases: physicochemical
[1] = salt screen, XRPD of damp, dried and 40° C./75% RH stored samples (Salt Preparation Methods 1 and 2); parameters: key to XRPD Analysis Damp/Dry: A = amorphous; Evap. = isolated via evaporation; conditions: for XRPD Analysis Damp / XRPD Analysis Dry: Ethyl acetate; for XRPD Analysis Damp/Dry: (evap.)
Procedure: (§1) Salt Preparation Method 1: Approximately 25 mg of Compound 1 (free base) was weighed out into 1.5 mL screw-cap vials and a stirrer bar was added. For solid counterions, the appropriate amount of acid (1.0 or 2.0 equiv.) was weighed into separate 1.5 mL screw-cap vials. 100 μL of the appropriate solvent system was added to both the Compound 1 and the solid counterions. Stock solutions of liquid counterions were prepared, such that 100 μL contained 1.0 or 2.0 equiv. of acid. See counterion and solvent lists in Table 60 and Table 61 respectively.
(§2) The samples were stirred at 40° C. for 5-10 min and then the acid solutions were added to Compound 1, rinsing out the transfer vial with a further 50 μL of solvent. […] Experiments were temperature cycled between 40° C. and 5° C. (1 h hold; 0.1° C./min ramp/cool) for ca. 24-68 h. Anti-solvent addition (ASA) was carried out to slurries at 5° C. then experiments were heated to 30° C. over 1 h. ASA was carried out at 30° C. or 40° C. where clear solutions or gums were observed.
(§3) Temperature cycling was then continued for ca. 16-69 h, followed by further ASA and temperature cycling if required. Material was isolated at 5° C. and analyzed damp by XRPD. All isolated material was dried under vacuum at ca. 40° C. for ca. 17-91 h then re-analyzed by XRPD. The XRPD plate was stored at 40° C./75% RH for 24-48 h and then samples re-analyzed. Solutions were stored uncapped at ambient temperature to evaporate. Any residual solids were analyzed by XRPD.
(§4) Salt Preparation Method 2: The general procedure adopted in preparing the potential salts is outlined below. A known mass of Compound 1 (free base) and a known volume of the appropriate solvent system were added to 20 mL scintillation vials. The required mol. equiv. of the appropriate counterions were added to the vials as solutions or slurries in the corresponding solvent system.
(§5) The experiments were stirred at 40° C. for ca. 1 h, and then temperature cycled between 40° C. and 5° C. with 0.1° C./min ramp and 1 h hold between each step. Anti-solvent additions and subsequent slurrying at 5° C. were employed in order to facilitate crystallization. […] The damp and dried solids were subsampled and analyzed by XRPD. Where applicable, the dried solids were stored at 40° C./75% RH for 24-48 h in order to improve the crystallinity and/or facilitate solid form conversion to the desired form.

[2] = as above; parameters: key: A = amorphous; Evap. = isolated via evaporation
Procedure: as §1, §2, §3, §4, §5

[3] = Variable Humidity X-Ray Powder Diffraction (VH-XRPD); conditions: Form 3: after extended exposure
Procedure: (§6) In the examples below, VH-XRPD analysis was carried out on a Philips X'Pert Pro Multipurpose diffractometer equipped with a humidity chamber. The samples were scanned between 4 and 36° 2θ using Cu K radiation (α1λ=1.54060 Å; α2=1.54443 Å; β=1.39225 Å; α1: α2 ratio=0.5; most, if not all, B radiation is removed from the beam using an X-ray mirror) running in Bragg-Brentano geometry (step size 0.008° 2θ) using 40 kV/40 mA generator settings. Measurements were carried out from 2-90% RH, with a final measurement taken at 40% RH.
as §6, with “VH-XRPD” for “In the examples below, VH-XRPD”, “radiation (α1 λ=1.54060” for “radiation (α1λ=1.54060”, “Å; α1:α2” for “Å; α1: α2”, “all, β” for “all, B”, “from 6-90% relative humidity (RH),” for “from 2-90% RH,”

[4] = Citric acid, 1 equiv., AS Heptane
[5] = Citric acid, 1 equiv., Acetonitrile, AS tBME
[6] = Citric acid, 1 equiv., Ethanol, AS Heptane
[7] = Citric acid, 1 equiv., IPA:H2O (75:25% v/v), AS tBME
[8] = Citric acid, 1 equiv., MEK, AS Heptane
[9] = Citric acid, 1 equiv., THF, AS Heptane
[10] = L-Tartaric acid, 1 equiv., AS Heptane
[11] = L-Tartaric acid, 1 equiv., Acetonitrile, AS tBME
[12] = L-Tartaric acid, 1 equiv., Ethanol, AS Heptane
[13] = L-Tartaric acid, 1 equiv., IPA:H2O (75:25% v/v), AS tBME
[14] = L-Tartaric acid, 1 equiv., MEK, AS Heptane
[15] = L-Tartaric acid, 1 equiv., THF, AS Heptane
[16] = Maleic acid, 1 equiv., IPA:H2O (75:25% v/v), AS tBME
[17] = Maleic acid, 1 equiv., Acetonitrile, AS tBME
[18] = Maleic acid, 1 equiv., Ethanol, AS Heptane
[19] = Maleic acid, 1 equiv., Ethyl acetate, AS Heptane
[20] = Maleic acid, 1 equiv., MEK, AS Heptane
[21] = Maleic acid, 1 equiv., THF, AS Heptane
[22] = Methanesulfonic acid, 1 equiv., Ethanol, AS Heptane
[23] = Methanesulfonic acid, 1 equiv., IPA:H2O (75:25% v/v), AS tBME
[24] = Methanesulfonic acid, 1 equiv., Acetonitrile, AS tBME
[25] = Methanesulfonic acid, 1 equiv., Ethyl acetate, AS Heptane
[26] = Methanesulfonic acid, 1 equiv., MEK, AS Heptane
[27] = Methanesulfonic acid, 1 equiv., THF, AS Heptane
[28] = Methanesulfonic acid, 2 equiv., IPA:H2O (75:25% v/v), AS tBME
[29] = Methanesulfonic acid, 2 equiv., Acetonitrile, AS tBME
[30] = Methanesulfonic acid, 2 equiv., Ethanol, AS Heptane
[31] = Methanesulfonic acid, 2 equiv., Ethyl acetate, AS Heptane
[32] = Methanesulfonic acid, 2 equiv., MEK, AS Heptane
[33] = Methanesulfonic acid, 2 equiv., THF, AS Heptane
[34] = p-Toluenesulfonic acid, 1 equiv., Ethanol, AS Heptane
[35] = p-Toluenesulfonic acid, 1 equiv., IPA:H2O (75:25% v/v), AS tBME
[36] = p-Toluenesulfonic acid, 1 equiv., Acetonitrile, AS tBME
[37] = p-Toluenesulfonic acid, 1 equiv., Ethyl acetate, AS Heptane
[38] = p-Toluenesulfonic acid, 1 equiv., MEK, AS Heptane
[39] = p-Toluenesulfonic acid, 1 equiv., THF, AS Heptane
[40] = p-Toluenesulfonic acid, 2 equiv., IPA:H2O (75:25% v/v), AS tBME
[41] = p-Toluenesulfonic acid, 2 equiv., Acetonitrile, AS tBME
[42] = p-Toluenesulfonic acid, 2 equiv., Ethanol, AS Heptane
[43] = p-Toluenesulfonic acid, 2 equiv., Ethyl acetate, AS Heptane
[44] = p-Toluenesulfonic acid, 2 equiv., MEK, AS Heptane
[45] = p-Toluenesulfonic acid, 2 equiv., THF, AS Heptane

Compound: O=C(O)CC(O)(CC(=O)O)C(=O)O [Citric acid, 1 equiv.]
XRPD Analysis Damp [1, 4]: PC, CI | XRPD Analysis Dry [1, 4]: PC, CI | XRPD Analysis 40° C. 75% RH [2, 5]: A | XRPD Analysis Damp [2, 5]: A | XRPD Analysis Dry [2, 5]: A | XRPD Analysis 40° C. 75% RH [2, 6]: A | XRPD Analysis Damp [2, 6]: A | XRPD Analysis Dry [2, 6]: A | XRPD Analysis 40° C. 75% RH ([2]; Citric acid, 1 equiv., Ethyl acetate, AS Heptane): A | XRPD Analysis 40° C. 75% RH [2, 7]: A | XRPD Analysis Damp [2, 7]: A | XRPD Analysis Dry [2, 7]: A | XRPD Analysis 40° C. 75% RH [2, 8]: A | XRPD Analysis Damp [2, 8]: A | XRPD Analysis Dry [2, 8]: A | XRPD Analysis 40° C. 75% RH [2, 9]: A | XRPD Analysis Damp [2, 9]: A | XRPD Analysis Dry [2, 9]: A

XRPD Analysis Damp [1, 10]: PC, CI | XRPD Analysis Dry [1, 10]: PC, CI | XRPD Analysis 40° C. 75% RH [2, 11]: A | XRPD Analysis Damp [2, 11]: A | XRPD Analysis Dry [2, 11]: A | XRPD Analysis 40° C. 75% RH [2, 12]: A | XRPD Analysis Damp [2, 12]: A | XRPD Analysis Dry [2, 12]: A | XRPD Analysis 40° C. 75% RH ([2]; L-Tartaric acid, 1 equiv., Ethyl acetate, AS Heptane): A | XRPD Analysis 40° C. 75% RH [2, 13]: A | XRPD Analysis Damp [2, 13]: A | XRPD Analysis Dry [2, 13]: A | XRPD Analysis 40° C. 75% RH [2, 14]: A | XRPD Analysis Damp [2, 14]: A | XRPD Analysis Dry [2, 14]: A | XRPD Analysis 40° C. 75% RH [2, 15]: A | XRPD Analysis Damp [2, 15]: A | XRPD Analysis Dry [2, 15]: A
Compound: O=C(O)C(O)C(O)C(=O)O [L-Tartaric acid, 1 equiv.]

XRPD Analysis Damp/Dry [1, 16]: A (evap.) | XRPD Analysis 40° C. 75% RH [2, 17]: A | XRPD Analysis Damp [2, 17]: A | XRPD Analysis Dry [2, 17]: A | XRPD Analysis 40° C. 75% RH [2, 18]: A | XRPD Analysis Damp [2, 18]: A | XRPD Analysis Dry [2, 18]: A | XRPD Analysis 40° C. 75% RH [2, 19]: A | XRPD Analysis Damp [2, 19]: A | XRPD Analysis Dry [2, 19]: A | XRPD Analysis 40° C. 75% RH [2, 16]: A | XRPD Analysis 40° C. 75% RH [2, 20]: A | XRPD Analysis Damp [2, 20]: A | XRPD Analysis Dry [2, 20]: A | XRPD Analysis 40° C. 75% RH [2, 21]: A | XRPD Analysis Damp [2, 21]: A | XRPD Analysis Dry [2, 21]: A
Compound: O=C(O)/C=C\C(=O)O [Maleic acid, 1 equiv.]

XRPD Analysis Damp/Dry [1, 22]: A (evap.) | XRPD Analysis Damp/Dry [1, 23]: A (evap.) | XRPD Analysis 40° C. 75% RH [2, 24]: A | XRPD Analysis Damp [2, 24]: A | XRPD Analysis Dry [2, 24]: A | XRPD Analysis 40° C. 75% RH [2, 22]: A | XRPD Analysis 40° C. 75% RH [2, 25]: A | XRPD Analysis Damp [2, 25]: A | XRPD Analysis Dry [2, 25]: A | XRPD Analysis 40° C. 75% RH [2, 23]: A | XRPD Analysis 40° C. 75% RH [2, 26]: A | XRPD Analysis Damp [2, 26]: A | XRPD Analysis Dry [2, 26]: A | XRPD Analysis 40° C. 75% RH [2, 27]: A | XRPD Analysis Damp [2, 27]: A | XRPD Analysis Dry [2, 27]: A
Compound: CS(=O)(=O)O [Methanesulfonic acid, 1 equiv.]

XRPD Analysis Damp/Dry [1, 28]: A (evap.) | XRPD Analysis 40° C. 75% RH [2, 29]: A | XRPD Analysis Damp [2, 29]: A | XRPD Analysis Dry [2, 29]: A | XRPD Analysis 40° C. 75% RH [2, 30]: A | XRPD Analysis Damp [2, 30]: A | XRPD Analysis Dry [2, 30]: A | XRPD Analysis 40° C. 75% RH [2, 31]: A | XRPD Analysis Damp [2, 31]: A | XRPD Analysis Dry [2, 31]: A | XRPD Analysis 40° C. 75% RH [2, 28]: A | XRPD Analysis 40° C. 75% RH [2, 32]: A | XRPD Analysis Damp [2, 32]: A | XRPD Analysis Dry [2, 32]: A | XRPD Analysis 40° C. 75% RH [2, 33]: A | XRPD Analysis Damp [2, 33]: A | XRPD Analysis Dry [2, 33]: A
Compound: CS(=O)(=O)O [Methanesulfonic acid, 2 equiv.]

Compound: COc1cc(C(=O)O[C@@H]2CCCOc3cc(cc(OC)c3OC)C(=O)NCCCN3CCCN(CC2)CC3)cc(OC)c1OC.O=S(=O)(O)O.O=S(=O)(O)O [crystalline Form 5 Compound 1 di(hydrogen sulfate)]
relative humidity at which conversion to crystalline Form 2 Compound 1 di(hydrogen sulfate) trihydrate is observed [3]: ≥ 10 % RH

XRPD Analysis Damp/Dry [1, 34]: A (evap.) | XRPD Analysis Damp/Dry [1, 35]: A (evap.) | XRPD Analysis 40° C. 75% RH [2, 36]: A | XRPD Analysis Damp [2, 36]: A | XRPD Analysis Dry [2, 36]: A | XRPD Analysis 40° C. 75% RH [2, 34]: A | XRPD Analysis 40° C. 75% RH [2, 37]: A | XRPD Analysis Damp [2, 37]: A | XRPD Analysis Dry [2, 37]: A | XRPD Analysis 40° C. 75% RH [2, 35]: A | XRPD Analysis 40° C. 75% RH [2, 38]: A | XRPD Analysis Damp [2, 38]: A | XRPD Analysis Dry [2, 38]: A | XRPD Analysis 40° C. 75% RH [2, 39]: A | XRPD Analysis Damp [2, 39]: A | XRPD Analysis Dry [2, 39]: A
Compound: Cc1ccc(S(=O)(=O)O)cc1 [p-Toluenesulfonic acid, 1 equiv.]

XRPD Analysis Damp/Dry [1, 40]: A (evap.) | XRPD Analysis 40° C. 75% RH [2, 41]: A | XRPD Analysis Damp [2, 41]: A | XRPD Analysis Dry [2, 41]: A | XRPD Analysis 40° C. 75% RH [2, 42]: A | XRPD Analysis Damp [2, 42]: A | XRPD Analysis Dry [2, 42]: A | XRPD Analysis 40° C. 75% RH [2, 43]: A | XRPD Analysis Damp [2, 43]: A | XRPD Analysis Dry [2, 43]: A | XRPD Analysis 40° C. 75% RH [2, 40]: A | XRPD Analysis 40° C. 75% RH [2, 44]: A | XRPD Analysis Damp [2, 44]: A | XRPD Analysis Dry [2, 44]: A | XRPD Analysis 40° C. 75% RH [2, 45]: A | XRPD Analysis Damp [2, 45]: A | XRPD Analysis Dry [2, 45]: A
Compound: Cc1ccc(S(=O)(=O)O)cc1 [p-Toluenesulfonic acid, 2 equiv.]
